ChEMBL document CHEMBL1909046, “DrugMatrix in vitro pharmacology data”

Assays:
[1] = DRUGMATRIX: Calcium Channel Type L, Phenylalkylamine radioligand binding (ligand: [3H] (-)-Desmethoxyverapamil (D-888)); assay type: cell membranes, Rattus norvegicus, Wistar, Brain, Membrane; conditions: Not Active = under 50% inhibition at 10 µM
[2] = target: T1, Cysteinyl leukotriene receptor 1 (Homo sapiens, UniProt Q9Y271); assay type: cell membranes, Membrane; conditions: cho-k1; also: in other assays of this panel Not Active means under 50% inhibition at 10 µM
T1 sequence (Q9Y271 whole entry): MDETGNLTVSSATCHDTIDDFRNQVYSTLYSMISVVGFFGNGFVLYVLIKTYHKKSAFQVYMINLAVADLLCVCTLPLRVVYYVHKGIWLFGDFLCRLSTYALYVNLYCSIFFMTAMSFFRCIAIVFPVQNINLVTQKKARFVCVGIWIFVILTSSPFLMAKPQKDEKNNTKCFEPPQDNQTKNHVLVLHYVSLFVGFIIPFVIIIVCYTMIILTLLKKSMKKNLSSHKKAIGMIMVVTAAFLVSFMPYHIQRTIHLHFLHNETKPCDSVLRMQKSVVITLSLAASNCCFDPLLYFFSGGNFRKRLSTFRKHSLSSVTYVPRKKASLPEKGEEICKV

Cannabinoid receptor 1 = Cannabinoid receptor 1 (Homo sapiens, UniProt P21554); assay type: cell membranes, Membrane; conditions: chem-1; also: in other assays of this panel Not Active means under 50% inhibition at 10 µM
Chain of Cannabinoid receptor 1 (P21554 whole entry): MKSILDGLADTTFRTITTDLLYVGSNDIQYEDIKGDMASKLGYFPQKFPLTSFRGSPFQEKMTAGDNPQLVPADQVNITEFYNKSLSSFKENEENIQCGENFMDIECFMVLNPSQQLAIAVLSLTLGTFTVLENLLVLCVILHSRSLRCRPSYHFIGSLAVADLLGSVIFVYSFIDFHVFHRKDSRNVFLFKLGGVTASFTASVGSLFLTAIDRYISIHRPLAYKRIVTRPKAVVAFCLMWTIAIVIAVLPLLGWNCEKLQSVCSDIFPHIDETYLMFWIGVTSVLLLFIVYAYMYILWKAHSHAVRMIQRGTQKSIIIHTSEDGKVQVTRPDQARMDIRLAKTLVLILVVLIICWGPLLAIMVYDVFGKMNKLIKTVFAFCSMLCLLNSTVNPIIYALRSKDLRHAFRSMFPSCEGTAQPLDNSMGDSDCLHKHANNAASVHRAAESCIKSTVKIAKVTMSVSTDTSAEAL

Progesterone receptor = target: T2, Progesterone receptor (Bos taurus, UniProt Q690N0); assay: DRUGMATRIX: Progesterone radioligand binding (ligand: [3H] R-5020); assay type: tissue-based, Uterus; conditions: Not Active = under 50% inhibition at 10 µM
T2 sequence (Q690N0 whole entry): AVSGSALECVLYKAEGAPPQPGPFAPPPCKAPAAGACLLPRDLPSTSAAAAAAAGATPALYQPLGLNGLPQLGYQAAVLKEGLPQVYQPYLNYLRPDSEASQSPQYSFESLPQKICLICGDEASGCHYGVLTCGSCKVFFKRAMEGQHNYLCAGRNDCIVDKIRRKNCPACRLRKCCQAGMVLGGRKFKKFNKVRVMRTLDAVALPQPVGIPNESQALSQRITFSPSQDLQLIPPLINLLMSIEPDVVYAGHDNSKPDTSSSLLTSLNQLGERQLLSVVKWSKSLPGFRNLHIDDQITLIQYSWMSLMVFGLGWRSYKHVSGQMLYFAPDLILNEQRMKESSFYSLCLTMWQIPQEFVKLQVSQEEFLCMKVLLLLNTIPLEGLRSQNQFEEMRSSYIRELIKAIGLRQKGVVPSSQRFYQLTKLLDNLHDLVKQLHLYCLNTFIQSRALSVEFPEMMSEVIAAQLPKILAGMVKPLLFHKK

[3] = target: Voltage-gated inwardly rectifying potassium channel KCNH2 (Homo sapiens, UniProt Q12809); conditions: hek293; also: in other assays of this panel Not Active means under 50% inhibition at 10 µM
Chain of Voltage-gated inwardly rectifying potassium channel KCNH2 (Q12809 whole entry): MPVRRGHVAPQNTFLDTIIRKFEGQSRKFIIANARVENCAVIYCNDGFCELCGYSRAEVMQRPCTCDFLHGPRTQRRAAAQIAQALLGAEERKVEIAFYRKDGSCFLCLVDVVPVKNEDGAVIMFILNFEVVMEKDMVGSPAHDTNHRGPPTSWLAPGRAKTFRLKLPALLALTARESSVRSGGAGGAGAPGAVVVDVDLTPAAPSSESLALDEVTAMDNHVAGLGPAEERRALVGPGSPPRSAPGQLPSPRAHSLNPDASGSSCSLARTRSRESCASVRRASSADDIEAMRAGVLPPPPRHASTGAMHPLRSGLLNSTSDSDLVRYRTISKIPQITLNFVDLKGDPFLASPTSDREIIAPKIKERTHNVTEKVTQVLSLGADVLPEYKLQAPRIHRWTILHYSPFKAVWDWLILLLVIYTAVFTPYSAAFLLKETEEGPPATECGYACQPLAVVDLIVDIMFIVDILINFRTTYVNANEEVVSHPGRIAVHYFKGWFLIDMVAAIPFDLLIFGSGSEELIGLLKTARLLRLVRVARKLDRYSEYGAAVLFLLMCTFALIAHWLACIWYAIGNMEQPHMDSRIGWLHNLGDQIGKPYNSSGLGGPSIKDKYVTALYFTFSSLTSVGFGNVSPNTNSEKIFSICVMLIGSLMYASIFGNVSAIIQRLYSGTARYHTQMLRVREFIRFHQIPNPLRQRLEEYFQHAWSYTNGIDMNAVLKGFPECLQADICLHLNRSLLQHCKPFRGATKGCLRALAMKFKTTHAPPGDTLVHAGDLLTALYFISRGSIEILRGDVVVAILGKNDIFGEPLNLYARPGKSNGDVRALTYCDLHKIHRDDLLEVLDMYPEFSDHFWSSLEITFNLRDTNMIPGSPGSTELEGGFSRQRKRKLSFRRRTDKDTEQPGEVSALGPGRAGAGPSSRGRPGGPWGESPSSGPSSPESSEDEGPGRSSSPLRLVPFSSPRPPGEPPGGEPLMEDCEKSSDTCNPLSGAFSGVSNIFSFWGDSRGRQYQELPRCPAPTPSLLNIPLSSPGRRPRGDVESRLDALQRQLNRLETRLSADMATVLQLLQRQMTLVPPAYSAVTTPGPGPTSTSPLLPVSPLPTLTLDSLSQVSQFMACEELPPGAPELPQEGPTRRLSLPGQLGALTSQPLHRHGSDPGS

[4] = target: Vascular endothelial growth factor receptor 1 (Homo sapiens, UniProt P17948); assay: biochemical; assay type: cell-based, HUVEC; conditions: huvec; also: in other assays of this panel Not Active means under 50% inhibition at 10 µM
Chain of Vascular endothelial growth factor receptor 1 (P17948 whole entry): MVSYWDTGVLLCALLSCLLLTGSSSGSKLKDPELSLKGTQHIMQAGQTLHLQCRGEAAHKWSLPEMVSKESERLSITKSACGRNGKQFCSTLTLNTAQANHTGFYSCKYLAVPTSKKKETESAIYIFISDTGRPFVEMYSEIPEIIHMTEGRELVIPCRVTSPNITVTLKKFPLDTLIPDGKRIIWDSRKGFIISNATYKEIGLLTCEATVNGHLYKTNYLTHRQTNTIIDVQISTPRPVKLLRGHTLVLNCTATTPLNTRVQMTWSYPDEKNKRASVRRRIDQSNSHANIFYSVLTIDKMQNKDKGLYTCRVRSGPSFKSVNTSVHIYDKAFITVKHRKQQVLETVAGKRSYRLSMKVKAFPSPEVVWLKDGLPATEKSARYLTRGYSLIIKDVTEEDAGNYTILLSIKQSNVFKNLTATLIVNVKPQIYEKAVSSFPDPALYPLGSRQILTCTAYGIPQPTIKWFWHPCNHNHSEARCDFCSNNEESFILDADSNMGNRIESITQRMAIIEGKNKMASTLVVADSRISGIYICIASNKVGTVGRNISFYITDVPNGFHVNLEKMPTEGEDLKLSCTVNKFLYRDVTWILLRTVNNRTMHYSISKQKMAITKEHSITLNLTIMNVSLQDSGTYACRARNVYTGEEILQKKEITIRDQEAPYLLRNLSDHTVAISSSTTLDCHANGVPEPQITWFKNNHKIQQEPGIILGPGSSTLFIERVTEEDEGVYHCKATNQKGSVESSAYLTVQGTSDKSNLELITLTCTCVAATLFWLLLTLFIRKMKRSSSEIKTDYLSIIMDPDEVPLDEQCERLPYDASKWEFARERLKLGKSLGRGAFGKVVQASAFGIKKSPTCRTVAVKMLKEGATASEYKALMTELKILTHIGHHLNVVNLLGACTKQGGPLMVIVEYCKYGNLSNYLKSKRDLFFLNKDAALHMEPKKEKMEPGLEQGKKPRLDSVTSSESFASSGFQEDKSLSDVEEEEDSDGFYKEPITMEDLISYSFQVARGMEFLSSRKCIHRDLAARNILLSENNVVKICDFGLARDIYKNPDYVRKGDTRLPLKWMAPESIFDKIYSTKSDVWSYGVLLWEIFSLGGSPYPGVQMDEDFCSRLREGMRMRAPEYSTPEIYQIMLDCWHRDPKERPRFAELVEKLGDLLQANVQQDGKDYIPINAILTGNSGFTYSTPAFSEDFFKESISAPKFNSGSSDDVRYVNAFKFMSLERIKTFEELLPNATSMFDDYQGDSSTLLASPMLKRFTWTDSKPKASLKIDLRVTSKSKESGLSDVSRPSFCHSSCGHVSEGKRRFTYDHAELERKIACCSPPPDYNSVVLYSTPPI

[5] = DRUGMATRIX: Phosphodiesterase PDE3 enzyme inhibition (substrate: [3H]cAMP + cAMP); assay type: tissue-based, Homo sapiens; conditions: platelet; Not Active = under 50% inhibition at 10 µM
Cytochrome P450 3A4 = Cytochrome P450 3A4 (Homo sapiens, UniProt P08684); conditions: bti-tn-5b1-4; also: in other assays of this panel Not Active means under 50% inhibition at 10 µM
Chain of Cytochrome P450 3A4 (P08684 whole entry): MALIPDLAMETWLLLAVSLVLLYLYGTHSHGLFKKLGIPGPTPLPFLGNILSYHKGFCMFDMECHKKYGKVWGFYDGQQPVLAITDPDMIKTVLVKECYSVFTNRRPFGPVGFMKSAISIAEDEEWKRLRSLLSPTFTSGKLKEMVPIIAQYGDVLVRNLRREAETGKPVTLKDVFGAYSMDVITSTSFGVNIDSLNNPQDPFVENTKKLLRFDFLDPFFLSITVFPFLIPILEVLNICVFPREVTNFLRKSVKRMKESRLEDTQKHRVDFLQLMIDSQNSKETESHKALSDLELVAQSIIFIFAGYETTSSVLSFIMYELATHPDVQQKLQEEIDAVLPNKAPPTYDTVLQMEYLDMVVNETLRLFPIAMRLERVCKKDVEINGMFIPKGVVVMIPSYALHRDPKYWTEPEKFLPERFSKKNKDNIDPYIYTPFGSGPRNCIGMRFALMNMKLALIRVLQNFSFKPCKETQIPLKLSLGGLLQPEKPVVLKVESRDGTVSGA

COc1cc(N)nc2[nH]c(-c3ccc(F)cc3)c(-c3ccncc3)c12
Not Active: IC50 [1] | Ki [1] | IC50 [2] | IC50 (Cannabinoid receptor 1) | IC50 (Progesterone receptor) | IC50 [3] | Ki [3] | IC50 [4] | IC50 [5] | Ki [5]

CC(=O)Nc1nnc(S(N)(=O)=O)s1 [ACETAZOLAMIDE]
Not Active: IC50 [2] | IC50 (Cytochrome P450 3A4) | Ki (Cytochrome P450 3A4) | IC50 (Cannabinoid receptor 1) | IC50 (Progesterone receptor) | IC50 [3] | Ki [3] | IC50 [4]

O=c1[nH]c2ccccc2n1CCCN1CCC(n2c(=O)[nH]c3cc(Cl)ccc32)CC1 [DOMPERIDONE]
Not Active: IC50 [2] | IC50 (Cannabinoid receptor 1) | IC50 (Progesterone receptor) | IC50 [3] | Ki [3] | IC50 [4]

CC(C)OC(=O)C(C)(C)Oc1ccc(C(=O)c2ccc(Cl)cc2)cc1 [FENOFIBRATE]
Not Active: IC50 [2] | IC50 (Cytochrome P450 3A4) | Ki (Cytochrome P450 3A4) | IC50 (Cannabinoid receptor 1) | IC50 (Progesterone receptor) | IC50 [3] | Ki [3] | IC50 [4]

OCCN1CCN(CCCN2c3ccccc3Sc3ccc(C(F)(F)F)cc32)CC1 [FLUPHENAZINE]
Not Active: IC50 [2] | IC50 (Cannabinoid receptor 1) | IC50 (Progesterone receptor) | IC50 [4]

CN1C2CCCC1CC(NC(=O)c1nn(C)c3ccccc13)C2 (stereo not drawn) [GRANISETRON]
Not Active: IC50 [2] | IC50 (Cytochrome P450 3A4) | Ki (Cytochrome P450 3A4) | IC50 (Cannabinoid receptor 1) | IC50 (Progesterone receptor) | IC50 [3] | Ki [3] | IC50 [4]

CC[C@@H](CO)NC(=O)[C@@H]1C=C2c3cccc4c3c(cn4C)C[C@H]2N(C)C1 [METHYSERGIDE]
Not Active: IC50 [2] | IC50 (Cytochrome P450 3A4) | Ki (Cytochrome P450 3A4) | IC50 (Cannabinoid receptor 1) | IC50 (Progesterone receptor) | IC50 [3] | Ki [3] | IC50 [4]

CN(CCOc1ccc(CC2SC(=O)NC2=O)cc1)c1ccccn1 (stereo not drawn) [ROSIGLITAZONE]
Not Active: IC50 [1] | Ki [1] | IC50 [2] | IC50 (Cannabinoid receptor 1) | IC50 (Progesterone receptor) | IC50 [3] | Ki [3] | IC50 [4] | IC50 [5] | Ki [5]

CO[C@H]1C[C@@H]2CC[C@@H](C)[C@@](O)(O2)C(=O)C(=O)N2CCCC[C@H]2C(=O)O[C@H]([C@H](C)C[C@@H]2CC[C@@H](O)[C@H](OC)C2)CC(=O)[C@H](C)/C=C(\C)[C@@H](O)[C@@H](OC)C(=O)[C@H](C)C[C@H](C)/C=C/C=C/C=C/1C [SIROLIMUS]
Not Active: IC50 [1] | Ki [1] | IC50 [2] | IC50 (Cannabinoid receptor 1) | IC50 (Progesterone receptor) | IC50 [3] | Ki [3] | IC50 [4] | IC50 [5] | Ki [5]

CC(C)(C)NC[C@H](O)COc1nsnc1N1CCOCC1 [TIMOLOL]
Not Active: IC50 [1] | Ki [1] | IC50 [2] | IC50 (Cannabinoid receptor 1) | IC50 (Progesterone receptor) | IC50 [3] | Ki [3] | IC50 [4] | IC50 [5] | Ki [5]

CCS(=O)(=O)CCn1c([N+](=O)[O-])cnc1C [TINIDAZOLE]
Not Active: IC50 [1] | Ki [1] | IC50 [2] | IC50 (Cannabinoid receptor 1) | IC50 (Progesterone receptor) | IC50 [3] | Ki [3] | IC50 [4] | IC50 [5] | Ki [5]

COc1ccc(CN2CCNCC2)c(OC)c1OC [TRIMETAZIDINE]
Not Active: IC50 [1] | Ki [1] | IC50 [2] | IC50 (Cannabinoid receptor 1) | IC50 (Progesterone receptor) | IC50 [3] | Ki [3] | IC50 [4] | IC50 [5] | Ki [5]

COc1cc(C(=O)NS(=O)(=O)c2ccccc2C)ccc1Cc1cn(C)c2ccc(NC(=O)OC3CCCC3)cc12 [ZAFIRLUKAST]
Not Active: IC50 [1] | Ki [1] | IC50 (Cytochrome P450 3A4) | Ki (Cytochrome P450 3A4) | IC50 (Cannabinoid receptor 1) | IC50 (Progesterone receptor) | IC50 [3] | Ki [3] | IC50 [4] | IC50 [5] | Ki [5]
